EC50 and IC50 data for 25 molecules are collected here from US20260315452A1, “PROTEASE INHIBITORS AND USES THEREOF” (priority 2023, published 2026).

Counter-ions that a name gives are not always drawn. Where only a bound is given, the exact number is not on record here.

The subject of one experiment is SARS-CoV-2. In words: Anti-SARS-CoV-2 activity in A549 cells expressing the human ACE2 receptor (inhibition of SARS-CoV-2 replication). In kind it is cell-based. Conditions: Severe acute respiratory syndrome coronavirus 2, A549-ACE2, 24 h, read-out: Antiviral Activity (EC50).
The target of another experiment is SARS-CoV-2 3CLpro (Severe acute respiratory syndrome coronavirus 2, UniProt P0DTD1). Nature of the experiment: biochemical. Conditions: inhibition of SARS-CoV-2 3CLpro; 15 nM 3CLpro, 25 μM fluorogenic substrate, 37° C.; read-out: Inhibitory Activity (IC50).

Take `O=C(NC1CC(F)(F)C1)c1cc(Br)cc(C(F)(F)F)c1N[C@@H]1COCC[C@@H]1NC(=O)c1cncc2cc(F)ccc12` [Compound 80, N-((3S, 4S)-3-((4-bromo-2-((3,3-difluorocyclobutyl)carbamoyl)-6-(trifluoromethyl)phenyl)amino)tetrahydro-2H-pyran-4-yl)-7-fluoroisoquinoline-4-carboxamide]: the EC50 in the experiment on SARS-CoV-2 was in the range of 100 to 1000 nM. The IC50 on SARS-CoV-2 3CLpro fell in the range of 100 to 1000 nM.
As for `C[C@@H](NC(=O)c1cc(Br)cc([N+](=O)[O-])c1N[C@@H]1CCCN(C(=O)c2cncc3ccccc23)C1)C(F)(F)F` [Compound 81, 5-bromo-2-(((R)-1-(isoquinoline-4-carbonyl)piperidin-3-yl)amino)-3-nitro-N-((R)-1,1,1-trifluoropropan-2-yl)benzamide], the concentration giving a half-maximal response (EC50) with SARS-CoV-2 was under 100 nM. For the same molecule, at SARS-CoV-2 3CLpro, the IC50 was under 100 nM.
With `O=C(NC1CC(F)(F)C1)c1cc(Cl)cc(C(F)(F)F)c1N[C@H]1CN(C(=O)c2cncc3ccccc23)CCC1(F)F` [Compound 82, (S)-5-chloro-2-((4,4-difluoro-1-(isoquinoline-4-carbonyl)piperidin-3-yl)amino)-N-(3,3-difluorocyclobutyl)-3-(trifluoromethyl)benzamide], the EC50 with SARS-CoV-2 was under 100 nM. Also, the IC50 on SARS-CoV-2 3CLpro is under 100 nM.
With `O=C(NC1CC1)c1cc(Cl)cc(C(F)(F)F)c1N[C@H]1CN(C(=O)c2cncc3ccccc23)CCC1(F)F` [Compound 83, (S)-5-chloro-N-cyclopropyl-2-((4,4-difluoro-1-(isoquinoline-4-carbonyl)piperidin-3-yl)amino)-3-(trifluoromethyl)benzamide], the EC50 in the experiment on SARS-CoV-2 was under 100 nM. On SARS-CoV-2 3CLpro, the IC50 was under 100 nM.
Consider `CNC(=O)c1cc(Cl)cc(C(F)(F)F)c1N[C@H]1CN(C(=O)c2cncc3ccccc23)CCC1(F)F` [Compound 84, (S)-5-chloro-2-((4,4-difluoro-1-(isoquinoline-4-carbonyl)piperidin-3-yl)amino)-N-methyl-3-(trifluoromethyl)benzamide], for which, in the experiment with SARS-CoV-2, the EC50 is under 100 nM. The half-inhibitory concentration (IC50) at SARS-CoV-2 3CLpro is under 100 nM.
Turning to `CC(C)(C)NC(=O)c1cc(Br)cc([N+](=O)[O-])c1N[C@@H]1CCCC[C@@H]1NC(=O)c1cncc2ccccc12` [Compound 85, N-((1S, 2R)-2-((4-bromo-2-(tert-butylcarbamoyl)-6-nitrophenyl)amino)cyclohexyl)isoquinoline-4-carboxamide], the 50% effective concentration (EC50) in the experiment with SARS-CoV-2 lay in the range of 100 to 1000 nM. Besides, the IC50 on SARS-CoV-2 3CLpro was 100 to 1000 nM.
`CNC(=O)c1cc(Br)cc([N+](=O)[O-])c1N[C@H]1CN(C(=O)c2cncc3ccccc23)CC[C@H]1F` [Compound 88, 5-bromo-2-(((3S, 4R)-4-fluoro-1-(isoquinoline-4-carbonyl)piperidin-3-yl)amino)-N-methyl-3-nitrobenzamide]: the EC50 in the experiment with SARS-CoV-2 was under 100 nM. Also, the IC50 at SARS-CoV-2 3CLpro is under 100 nM.
Turning to `CNC(=O)c1cc(Br)cc([N+](=O)[O-])c1N[C@@H]1CN(C)CC[C@@H]1NC(=O)c1cncc2ccccc12` [Compound 89, N-((3R,4S)-3-((4-bromo-2-(methylcarbamoyl)-6-nitrophenyl)amino)-1-methylpiperidin-4-yl)isoquinoline-4-carboxamide], in the experiment on SARS-CoV-2, the EC50 was in the range of 1000 to 10000 nM. Besides, the IC50 at SARS-CoV-2 3CLpro fell in the range of 1000 to 10000 nM.
Turning to `O=C(NCC(F)(F)F)c1cc(Cl)cc([N+](=O)[O-])c1N[C@H]1CN(C(=O)c2cncc3ccccc23)CCC1(F)F` [Compound 91, (S)-5-chloro-2-((4,4-difluoro-1-(isoquinoline-4-carbonyl)piperidin-3-yl)amino)-3-nitro-N-(2,2,2-trifluoroethyl) benzamide], the concentration giving a half-maximal response (EC50) in the experiment on SARS-CoV-2 is under 100 nM. In addition, at SARS-CoV-2 3CLpro, the IC50 was under 100 nM.
As for `CNC(=O)c1cc(Cl)cc([N+](=O)[O-])c1N[C@H]1CN(C(=O)c2cncc3ccccc23)CCC1(F)F` [Compound 92, (S)-5-chloro-2-((4,4-difluoro-1-(isoquinoline-4-carbonyl)piperidin-3-yl)amino)-N-methyl-3-nitrobenzamide], the half-maximal effective concentration (EC50) with SARS-CoV-2 is under 100 nM. Further, at SARS-CoV-2 3CLpro, the IC50 is under 100 nM.
Consider `CN1CC[C@@H](NC(=O)c2cc(Cl)cc([N+](=O)[O-])c2N[C@H]2CN(C(=O)c3cncc4ccccc34)CCC2(F)F)C1` [Compound 93, 5-chloro-2-(((S)-4,4-difluoro-1-(isoquinoline-4-carbonyl)piperidin-3-yl)amino)-N-(1-methylpyrrolidin-3-yl)-3-nitrobenzamide hydrochloride], for which the EC50 with SARS-CoV-2 is under 100 nM. Moreover, the IC50 on SARS-CoV-2 3CLpro is under 100 nM.
`CN(C)C1CN(C(=O)c2cc(Cl)cc([N+](=O)[O-])c2N[C@H]2CN(C(=O)c3cncc4ccccc34)CCC2(F)F)C1` [Compound 94, (S)-(5-chloro-2-((4,4-difluoro-1-(isoquinoline-4-carbonyl)piperidin-3-yl)amino)-3-nitrophenyl)(3-(dimethylamino)azetidin-1-yl)methanone hydrochloride]: in the experiment with SARS-CoV-2, the EC50 is under 100 nM. For the same molecule, the IC50 on SARS-CoV-2 3CLpro was under 100 nM.
Regarding `CNC1CN(C(=O)c2cc(Br)cc([N+](=O)[O-])c2N[C@H]2CN(C(=O)c3cncc4ccccc34)CCC2(F)F)C1` [Compound 95, (S)-(5-bromo-2-((4,4-difluoro-1-(isoquinoline-4-carbonyl)piperidin-3-yl)amino)-3-nitrophenyl)(3-(methylamino)azetidin-1-yl)methanone hydrochloride], the EC50 in the experiment with SARS-CoV-2 was under 100 nM. Besides, the IC50 at SARS-CoV-2 3CLpro was under 100 nM.
With `CNC(=O)c1cc(Cl)cc([N+](=O)[O-])c1N[C@H]1CN(C(=O)c2cncc3ccccc23)CC[C@@H]1F` [Compound 96, 5-chloro-2-(((3S, 4S)-4-fluoro-1-(isoquinoline-4-carbonyl)piperidin-3-yl)amino)-N-methyl-3-nitrobenzamide], the EC50 in the experiment on SARS-CoV-2 is under 100 nM. Further, on SARS-CoV-2 3CLpro, the IC50 is under 100 nM.
On to `CNC(=O)c1cc(Br)cc([N+](=O)[O-])c1NC(C(C)C)C1CN(C(=O)c2cncc3ccccc23)C1` (centres unmarked) [Compound 99, 5-bromo-2-((1-(1-(isoquinoline-4-carbonyl)azetidin-3-yl)-2-methylpropyl)amino)-N-methyl-3-nitrobenzamide], for which the concentration giving a half-maximal response (EC50) in the experiment on SARS-CoV-2 was in the range of 100 to 1000 nM. Moreover, the IC50 on SARS-CoV-2 3CLpro was in the range of 100 to 1000 nM.
Turning to `CC(C)C(Nc1c(C(=O)NC2CC(F)(F)C2)cc(Br)cc1[N+](=O)[O-])C1CN(C(=O)c2cncc3ccccc23)C1` (centres unmarked) [Compound 116, 5-bromo-N-(3,3-difluorocyclobutyl)-2-((1-(1-(isoquinoline-4-carbonyl)azetidin-3-yl)-2-methylpropyl)amino)-3-nitrobenzamide], the EC50 with SARS-CoV-2 was in the range of 100 to 1000 nM. In addition, on SARS-CoV-2 3CLpro, the IC50 lay within 100 to 1000 nM.
Regarding `CC(C)C(Nc1c(C(=O)N[C@H](C)C(F)(F)F)cc(Br)cc1[N+](=O)[O-])C1CN(C(=O)c2cncc3ccccc23)C1` (stereo partly drawn) [Compound 124, 5-bromo-2-((1-(1-(isoquinoline-4-carbonyl)azetidin-3-yl)-2-methylpropyl)amino)-3-nitro-N-((R)-1,1,1-trifluoropropan-2-yl)benzamide], in the experiment with SARS-CoV-2, the EC50 was under 100 nM. Further, the half-inhibitory concentration (IC50) at SARS-CoV-2 3CLpro is under 100 nM.
For the molecule `O=C(NC1CC1)c1cc(Br)cc([N+](=O)[O-])c1N[C@@H]1CCCN(C(=O)c2cncc3ccccc23)C1` [Compound 125, (R)-5-bromo-N-cyclopropyl-2-((1-(isoquinoline-4-carbonyl)piperidin-3-yl)amino)-3-nitrobenzamide], the EC50 in the experiment on SARS-CoV-2 was under 100 nM. Further, the IC50 at SARS-CoV-2 3CLpro was under 100 nM.
`O=C(NC1CC(F)(F)C1)c1cc(Br)cc([N+](=O)[O-])c1N[C@@H]1COCC[C@@H]1NC(=O)c1cncc2ccccc12` [Compound 126, N-((3S, 4S)-3-((4-bromo-2-((3,3-difluorocyclobutyl)carbamoyl)-6-nitrophenyl)amino)tetrahydro-2H-pyran-4-yl)isoquinoline-4-carboxamide]: in the experiment with SARS-CoV-2, the EC50 was under 100 nM. For the same molecule, the IC50 at SARS-CoV-2 3CLpro is under 100 nM.
`CNC(=O)c1cc(Br)cc([N+](=O)[O-])c1NC1CCC2(C1)CN(C(=O)c1cncc3ccccc13)C2` (centres unmarked) [Compound 127, 5-bromo-2-((2-(isoquinoline-4-carbonyl)-2-azaspiro[3, 4]octan-6-yl)amino)-N-methyl-3-nitrobenzamide]: the EC50 in the experiment with SARS-CoV-2 is over 10000 nM. In addition, the IC50 on SARS-CoV-2 3CLpro fell in the range of 1000 to 10000 nM.
In the same order, the values of `CNC(=O)c1cc(Br)cc([N+](=O)[O-])c1N1CCC2(CN(C(=O)c3cncc4ccccc34)CC2(F)F)C1` (centres unmarked) [Compound 129, 5-bromo-2-(9,9-difluoro-7-(isoquinoline-4-carbonyl)-2,7-diazaspiro[4, 4]nonan-2-yl)-N-methyl-3-nitrobenzamide] are 100 to 1000 nM and 100 to 1000 nM.
In the same order, the values of `CNC(=O)c1cc(Br)cc([N+](=O)[O-])c1N[C@@H]1COCC[C@@H]1NC(=O)c1cncc2ccccc12` [Compound 132, N-((3S, 4S)-3-((4-bromo-2-(methylcarbamoyl)-6-nitrophenyl)amino)tetrahydro-2H-pyran-4-yl)isoquinoline-4-carboxamide] are under 100 nM and under 100 nM.
In the same order, the values of `O=C(NC1CC1)c1cc(Br)cc([N+](=O)[O-])c1N[C@@H]1COCC[C@@H]1NC(=O)c1cncc2ccccc12` [Compound 133, N-((3S, 4S)-3-((4-bromo-2-(cyclopropylcarbamoyl)-6-nitrophenyl)amino)tetrahydro-2H-pyran-4-yl)isoquinoline-4-carboxamide] are under 100 nM and under 100 nM.
For `C[C@H](NC(=O)c1cc(Br)cc([N+](=O)[O-])c1N[C@@H]1COCC[C@@H]1NC(=O)c1cncc2ccccc12)C(F)(F)F` [Compound 135, N-((3S, 4S)-3-((4-bromo-2-nitro-6-(((S)-1,1,1-trifluoropropan-2-yl)carbamoyl)phenyl)amino)tetrahydro-2H-pyran-4-yl)isoquinoline-4-carboxamide], the EC50 with SARS-CoV-2 is under 100 nM. The IC50 on SARS-CoV-2 3CLpro was under 100 nM.
Take `O=C(c1cc(Br)cc([N+](=O)[O-])c1N[C@H]1CN(C(=O)c2cncc3ccccc23)CCC1(F)F)N1CC(O)C1` [Compound 139, (S)-(5-bromo-2-((4,4-difluoro-1-(isoquinoline-4-carbonyl)piperidin-3-yl)amino)-3-nitrophenyl)(3-hydroxyazetidin-1-yl)methanone]: the EC50 in the experiment on SARS-CoV-2 is under 100 nM. Moreover, on SARS-CoV-2 3CLpro, the IC50 is under 100 nM.

As usually defined, the EC50 is the midpoint of the concentration-response curve. What is called IC50 is the concentration that inhibits the measured activity by half.
